Test [1] deals with T1, human muscarinic acetylcholine M3 receptor (M3-ACh) (Homo sapiens, UniProt P20309).
T1 construct: expressed in transfected cells; host or cells: CHO-K1 (Chinese Hamster Ovary) cell membranes
In words: Muscarinic 3 Receptor Binding Assay ([3H]NMS competition, SPA). Particulars: [3H]NMS 0.1 nM, CHO-K1 cell membranes, 16 hours at room temperature; read-out: M3 pIC50 (converted). The gist of the method:
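Competition SPA binding of 0.1 nM [3H]NMS (quarter Kd) to membranes from CHO-K1 cells expressing human M3, in 20 mM HEPES pH 7.4, 5 mM MgCl2, 1% DMSO. Incubated 16 h at room temperature; non-specific binding with 1 µM atropine. pIC50 from 50% reduction of specific binding.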

Test [2] addresses T2, Adrenergic β2 (H292 cells) (Homo sapiens, UniProt P07550).
T2 construct: endogenous in cells; host or cells: H292 cells
Nature of the test: Assay for Adrenergic β2 Mediated cAMP Production (concentration response, AlphaScreen cAMP detection). As to conditions: for EC50: cAMP production, 60 minutes at room temperature, 300 μM rolipram, read-out: β2 pEC50 (converted); for β2 Intrinsic activity: fraction relative to the maximum activity determined for formoterol. Type of test: cell-based. The gist of the method:
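Intrinsic activity is relative to the per-experiment formoterol maximum, with pEC50 from a four-parameter logistic fit of cAMP levels quantified by AlphaScreen against standards. Cells (H292) got 300 μM rolipram for 10 min, then compound for 60 min at room temperature, 1% DMSO final.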
A general note: In Alpha technology, singlet oxygen from a donor bead excites a nearby acceptor bead.

Counter-ions that a name gives are not always drawn.

T1 sequence (P20309 whole entry): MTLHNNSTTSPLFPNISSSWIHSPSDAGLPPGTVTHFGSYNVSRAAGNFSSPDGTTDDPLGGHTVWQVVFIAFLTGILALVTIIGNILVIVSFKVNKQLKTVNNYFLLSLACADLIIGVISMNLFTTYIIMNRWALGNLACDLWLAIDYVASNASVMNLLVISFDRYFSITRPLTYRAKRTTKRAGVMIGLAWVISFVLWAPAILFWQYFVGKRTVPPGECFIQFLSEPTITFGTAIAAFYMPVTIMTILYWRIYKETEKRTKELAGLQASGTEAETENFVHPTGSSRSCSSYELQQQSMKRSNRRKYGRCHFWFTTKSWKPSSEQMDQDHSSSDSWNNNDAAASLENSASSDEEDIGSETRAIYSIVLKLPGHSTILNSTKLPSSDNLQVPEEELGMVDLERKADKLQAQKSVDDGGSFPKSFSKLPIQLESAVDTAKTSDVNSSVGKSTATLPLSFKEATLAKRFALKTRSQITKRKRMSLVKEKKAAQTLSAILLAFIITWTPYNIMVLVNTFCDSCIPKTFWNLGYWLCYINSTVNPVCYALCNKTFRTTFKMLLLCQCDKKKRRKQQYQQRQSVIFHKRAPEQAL
T2 sequence (P07550 whole entry): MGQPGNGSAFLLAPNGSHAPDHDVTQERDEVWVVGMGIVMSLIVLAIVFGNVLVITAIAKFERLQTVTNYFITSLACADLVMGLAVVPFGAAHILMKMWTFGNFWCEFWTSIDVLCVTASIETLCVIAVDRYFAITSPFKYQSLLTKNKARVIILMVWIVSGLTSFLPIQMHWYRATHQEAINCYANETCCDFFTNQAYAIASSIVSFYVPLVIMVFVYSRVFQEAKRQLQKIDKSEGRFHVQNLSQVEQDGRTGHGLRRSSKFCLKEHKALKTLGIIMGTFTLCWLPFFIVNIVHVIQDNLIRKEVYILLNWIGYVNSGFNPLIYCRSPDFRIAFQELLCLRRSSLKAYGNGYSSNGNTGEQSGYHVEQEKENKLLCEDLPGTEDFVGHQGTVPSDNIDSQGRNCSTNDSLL

For `Cc1nc(C(=O)N2CCOC3(CCN(CCc4ccc(CNC[C@H](O)c5ccc(O)c6[nH]c(=O)ccc56)s4)CC3)C2)cs1` [Example 98, (R)-8-Hydroxy-5-(1-hydroxy-2-((5-(2-(4-(2-methylthiazole-4-carbonyl)-1-oxa-4,9-diazaspiro[5.5]undecan-9-yl)ethyl)thiophen-2-yl)methylamino)ethyl)quinolin-2(1H)-one ditrifluoroacetate], the IC50 in test [1] was 1.26 nM. In test [2], the EC50 is 2000 nM and the “β2 Intrinsic activity” value turned out to be 0.4.
The matching figures for `O=C(c1csc(C2CCCC2)n1)N1CCOC2(CCN(Cc3cc(F)cc(CCNC[C@H](O)c4ccc(O)c5[nH]c(=O)sc45)c3)CC2)C1` [Example 59, (R)-7-(2-(3-((4-(2-Cyclopentylthiazole-4-carbonyl)-1-oxa-4,9-diazaspiro[5.5]undecan-9-yl)methyl)-5-fluorophenethylamino)-1-hydroxyethyl)-4-hydroxybenzo[d]thiazol-2(3H)-one ditrifluoroacetate]: 7.94 nM, 15.8 nM and 1.
The matching figures for `CC(C)(C)c1nc(C(=O)N2CCOC3(CCN(Cc4cc(CCNC[C@H](O)c5ccc(O)c6[nH]c(=O)sc56)cs4)CC3)C2)cs1` [Example 43, (R)-7-(2-(2-(5-((4-(2-tert-Butylthiazole-4-carbonyl)-1-oxa-4,9-diazaspiro[5.5]undecan-9-yl)methyl)thiophen-3-yl)ethylamino)-1-hydroxyethyl)-4-hydroxybenzo[d]thiazol-2(3H)-one ditrifluoroacetate]: 39.8 nM, 5.01 nM and 0.8.
For `O=C(c1csc(-c2ccccc2)n1)N1CCOC2(CCN(CCOc3ccc(CNC[C@H](O)c4ccc(O)c5[nH]c(=O)sc45)cc3)CC2)C1` [Example 112, (R)-4-Hydroxy-7-(1-hydroxy-2-(4-(2-(4-(2-phenylthiazole-4-carbonyl)-1-oxa-4,9-diazaspiro[5.5]undecan-9-yl)ethoxy)benzylamino)ethyl)benzo[d]thiazol-2(3H)-one ditrifluoroacetate] the same measures were 501 nM, 126 nM and 0.9.
In the case of `CCc1ccc(C(=O)N2CCOC3(CCN(Cc4cccc(CCNC[C@H](O)c5ccc(O)c6[nH]c(=O)ccc56)c4)CC3)C2)s1` [Example 12, (R)-5-(2-(3-((4-(5-Ethylthiophene-2-carbonyl)-1-oxa-4,9-diazaspiro[5.5]undecan-9-yl)methyl)phenethylamino)-1-hydroxyethyl)-8-hydroxyquinolin-2(1H)-one ditrifluoroacetate], the IC50 in test [1] was 1 nM. Also, in test [2], the EC50 is 10 nM and the “β2 Intrinsic activity” value came out at 1.
For the molecule `CC(C)c1cc(C(=O)N2CCOC3(CCN(Cc4cccc(CCNC[C@H](O)c5ccc(O)c6[nH]c(=O)sc56)c4F)CC3)C2)cs1` [Example 70, (R)-7-(2-(2-Fluoro-3-((4-(5-isopropylthiophene-3-carbonyl)-1-oxa-4,9-diazaspiro[5.5]undecan-9-yl)methyl)phenethylamino)-1-hydroxyethyl)-4-hydroxybenzo[d]thiazol-2(3H)-one ditrifluoroacetate], the IC50 in test [1] is 3.16 nM. In addition, in test [2], the EC50 is 7.94 nM and the “β2 Intrinsic activity” value is recorded as 0.8.
For `Cc1ccc(C(=O)N2CCOC3(CCN(Cc4ccc(F)c(CCNC[C@H](O)c5ccc(O)c6[nH]c(=O)sc56)c4F)CC3)C2)s1` [Example 34, (R)-7-(2-(2,6-Difluoro-3-((4-(5-methylthiophene-2-carbonyl)-1-oxa-4,9-diazaspiro[5.5]undecan-9-yl)methyl)phenethylamino)-1-hydroxyethyl)-4-hydroxybenzo[d]thiazol-2(3H)-one ditrifluoroacetate] the same measures were 20 nM, 3.16 nM and 1.
For `Cc1nc(C(=O)N2CCOC3(CCN(CCOc4ccc(CNC[C@H](O)c5ccc(O)c6[nH]c(=O)sc56)cc4)CC3)C2)cs1` [Example 1, (R)-4-Hydroxy-7-(1-hydroxy-2-(4-(2-(4-(2-methylthiazole-4-carbonyl)-1-oxa-4,9-diazaspiro[5.5]undecan-9-yl)ethoxy)benzylamino)ethyl)benzo[d]thiazol-2(3H)-one ditrifluoroacetate] the same measures were 3.16 nM, 63.1 nM and 0.8.
The matching figures for `CC(C)c1nc(C(=O)N2CCOC3(CCN(Cc4cccc(SCCNC[C@H](O)c5ccc(O)c6[nH]c(=O)sc56)c4)CC3)C2)cs1` [Example 65, (R)-4-Hydroxy-7-(1-hydroxy-2-(2-(3-((4-(2-isopropylthiazole-4-carbonyl)-1-oxa-4,9-diazaspiro[5.5]undecan-9-yl)methyl)phenylthio)ethylamino)ethyl)benzo[d]thiazol-2(3H)-one ditrifluoroacetate]: 0.631 nM, 100 nM and 0.9.
For the molecule `Cc1ccc(C(=O)N2CCOC3(CCN(CCCCCCCCCNC[C@H](O)c4ccc(O)c5[nH]c(=O)sc45)CC3)C2)s1` [Example 111, (R)-4-Hydroxy-7-(1-hydroxy-2-(9-(4-(5-methylthiophene-2-carbonyl)-1-oxa-4,9-diazaspiro[5.5]undecan-9-yl)nonylamino)ethyl)benzo[d]thiazol-2(3H)-one formate], the IC50 in test [1] was 0.794 nM. Further, in test [2], the EC50 was 31.6 nM and the “β2 Intrinsic activity” value came out at 0.8.
The matching figures for `CC(C)c1nc(C(=O)N2CCOC3(CCN(Cc4cccc(CCNC[C@H](O)c5ccc(O)c6[nH]c(=O)sc56)c4F)CC3)C2)cs1` [Example 48, (R)-7-(2-(2-Fluoro-3-((4-(2-isopropylthiazole-4-carbonyl)-1-oxa-4,9-diazaspiro[5.5]undecan-9-yl)methyl)phenethylamino)-1-hydroxyethyl)-4-hydroxybenzo[d]thiazol-2(3H)-one ditrifluoroacetate]: 0.794 nM, 5.01 nM and 0.9.
`CC(C)c1nc(C(=O)N2CCOC3(CCN(Cc4cccc(CCNC[C@H](O)c5ccc(O)c6[nH]c(=O)ccc56)c4)CC3)C2)cs1` [Example 23, (R)-8-Hydroxy-5-(1-hydroxy-2-(3-((4-(2-isopropylthiazole-4-carbonyl)-1-oxa-4,9-diazaspiro[5.5]undecan-9-yl)methyl)phenethylamino)ethyl)quinolin-2(1H)-one ditrifluoroacetate]: the IC50 in test [1] was 0.251 nM. In test [2], the EC50 was 15.8 nM and the “β2 Intrinsic activity” value came out at 0.9.
The matching figures for `Cc1nc(C(=O)N2CCOC3(CCN(CCOc4cc(C)c(CNC[C@H](O)c5ccc(O)c6[nH]c(=O)sc56)cc4C)CC3)C2)cs1` [Example 18, (R)-7-(2-(2,5-Dimethyl-4-(2-(4-(2-methylthiazole-4-carbonyl)-1-oxa-4,9-diazaspiro[5.5]undecan-9-yl)ethoxy)benzylamino)-1-hydroxyethyl)-4-hydroxybenzo[d]thiazol-2(3H)-one ditrifluoroacetate]: 2.51 nM, 63.1 nM and 1.

Values taken from patent US8148373B2, “Compounds” (AstraZeneca AB, priority 2008, dated 2012).
